Key:
[1] = Reaction of cyclic imine Mannich or sulfur fluoride electrophiles with Ac-Tyr-NHMe (HPLC, LC/MS); format: physicochemical
Description: To identify an appropriate warhead, we synthesized or purchased a collection of cyclic imines and incubated them with N‐acetyl‐L‐tyrosine methylamide (Ac‐Tyr‐NHMe) in PBS pH 7 at 37 °C (Table 1). The reactivity was quantified by UV integration on HPLC with LC/MS confirmation of product identity (Figure S1). […] The hydrolysis kinetics of imine 2 were characterized at pD 6 and 7.5 by NMR (Figure S3). […] The Mannich reaction mechanism involves a charged iminium intermediate, and the reaction is frequently catalyzed by Bronsted acids.^[ [36], [37] ^]
(§1) Figure 2 Second‐order rate constants for select cyclic imines and a sulfonyl fluoride with aromatic nucleophiles. Reactions were conducted under pseudo‐first‐order conditions with an excess of one reactant, as indicated. The reduction in the concentration of the limiting reactant was measured at various time points by HPLC analysis.
Figure S2: Second order rate constant determination. Reaction of (A) imine 1 (5 mM) with N-Ac-Tyr-NHMe (100 mM) at 37 °C or (B) at R.T. (C) imine 2 (5 mM) with N-Ac-Tyr-NHMe (100 mM) at 37 °C (D) imine 1 (5 mM) with indole-3-butyrate (100 mM) at 37 °C (E) imine 1 (10 mM) with 1 mM 1H-pyrrole-1-propionate (F) iminium 5 (5 mM) with N-Ac-Tyr-NHMe (100 mM) at 37 °C (G) imine 4 (5 mM) with N-Ac-Tyr-NHMe (100 mM) at 37 °C. (H) imine 11 (5 mM) with N-Ac-Tyr-NHMe (100 mM) at 37 °C. (I) imine 13 (5 mM) with N-Ac-Tyr-NHMe (100 mM) at 37 °C.
5.1 General procedure for determination of second order rate constants N-acetyl-l-tyrosine methyl amide (Ac-Tyr-NHMe) (100 mM) was incubated with 5 mM imine 1 in PBS (pH 7) at 37 °C or R.T..

[2] = Stability of warheads and inhibitors (solid, PBS, hydrolysis); format: physicochemical
Description: (§2) To be suitable for chemical probe and therapeutic applications, the warhead should show good stability. In general, we found the iminolactam warheads to be quite stable. Compound 1 was stable as a solid at room temperature for over 3 months. […] After 24‐h in aqueous buffer, compounds were treated with sodium cyanoborohydride. […] The synthetic strategy of in situ formation of imines by periodate treatment was pursued to avoid concerns of warhead reactivity with the ligand itself to either the peptide backbone or the phenoxyphenyl aryl group. This appears to have been unnecessary, at least for the iminolactam warhead. […] The more reactive ester imine may be forming semi‐stable cyclized products with the amide backbone, which have been observed previously with peptide aldehydes.^[ [51], [52] ^] Due to these issues, we selected compound P1b for further characterization.

eDHFR wt = target: T1, eDHFR wt (Escherichia coli, UniProt P0ABQ4); test: Covalent labeling of eDHFR wild type by LC/MS; format: binding, E. coli; conditions: 10 µM protein, 10 µM compound, overnight, 37 °C
T1 construct: made in house; host or cells: E. coli (BL21 CodonPlus RIL or Rosetta 2), pET-28b(+)

eDHFR L28Y = target: T2, eDHFR L28Y (Escherichia coli, UniProt P0ABQ4, L28Y); test: Covalent labeling of eDHFR L28Y by LC/MS; format: binding, E. coli
T2 construct: made in house; host or cells: E. coli (BL21 CodonPlus RIL or Rosetta 2), pET-28b(+)
From the text: (§3) Similarly, we prepared eDHFR tyrosine and tryptophan mutants at position 28 to assess labeling with TMP‐Im (Figure 3b). […] We conducted trypsin digestion of the labeled L28Y protein and localized the modification to the intended tyrosine by MS/MS fragmentation (Figure S9A). To assess selectivity over thiols, we tested labeling of the cysteine mutant. […] This labeling was reversed with GSH treatment, which is consistent with the reversibility of thioaminal formation (Figure S10).
(§4) Reactions with thiol mutant L28C were conducted in the presence of 5 mM glutathione and 5 mM TCEP. The observed mass differences of labeled and unlabeled proteins agree with the expected mass change of 428 Da.
Figure S10. Ligand directed labeling in the presence of thiols. […] B) TMP-Im (10 µM) was incubated with eDHFR L28C (10 µM) overnight in the absence (left and center) or presence of 5 mM GSH with 5 mM TCEP. For the center panel, after the labeling reaction, GSH (5 mM) was added and allowed to incubated overnight.

eDHFR L28C = target: T3, eDHFR L28C (Escherichia coli, UniProt P0ABQ4, L28C); test: Covalent labeling of eDHFR L28C by LC/MS; format: binding, E. coli
T3 construct: made in house; host or cells: E. coli (BL21 CodonPlus RIL or Rosetta 2), pET-28b(+)
From the text: as §3, §4
Figure S10. Ligand directed labeling in the presence of thiols. A) TMP-Im (10 µM) was incubated with eDHFR L28Y (10 µM) overnight at RT in the absence (left) or presence of 5 mM GSH with 5 mM TCEP. B) TMP-Im (10 µM) was incubated with eDHFR L28C (10 µM) overnight in the absence (left and center) or presence of 5 mM GSH with 5 mM TCEP. For the center panel, after the labeling reaction, GSH (5 mM) was added and allowed to incubated overnight.

[3] = Stability in bovine serum-containing cell media (LC/MS); format: in vitro ADME; conditions: 20 µM, DMEM with 15% FBS, 24 h, 37 °C
Description: as §2
Figure S17. Stability of cyclic imine inhibitors to serum-containing cell culture media. […] The protein fraction was then precipitated with addition of 2 volumes of 1:1 EtOH:acetonitrile and overnight incubation at -20 °C. Samples were centrifuged 16,000 g for 30 minutes. Supernatants were filtered through a 0.5 micro spin filter and evaporated with a speed vacuum. The compounds were resuspended in PBS and analzyed by LC/MS. […] Overlaid spectra of UV at 215 nm are shown and are representative of 3 replicates.

eDHFR L28W = target: T4, eDHFR L28W (Escherichia coli, UniProt P0ABQ4, L28W); test: Covalent labeling of eDHFR L28W by LC/MS; format: binding, E. coli; conditions: 10 µM protein, 10 µM compound, overnight, 37 °C
T4 construct: made in house; host or cells: E. coli (BL21 CodonPlus RIL or Rosetta 2), pET-28b(+)
From the text: as §3, §4

[4] = Reaction of imine 1 with indole-3-butyrate (tryptophan mimic), rate constant; format: physicochemical; conditions: imine 5 mM, indole-3-butyrate 100 mM, 37 °C
Description: as §1, with “analysis. Rates of imine 1 with N‐Ac‐Tyr‐NMe, indole‐3‐butyric acid, and 1H‐pyrrole‐1‐propionic acid and compounds 4, 11, and 13 with N‐Ac‐Tyr‐NMe were measured. […]” for “analysis.”
(§5) To assess the selectivity for tyrosine side chains, we tested the reactivity of 1 with additional compounds, including β‐mercaptoethanol, imidazole, isopropanol, n‐butylamine, propionic acid, 3‐methyl indole, and N‐ethyl pyrrole. […] While partially stable under LC/MS conditions, the N,S‐thioaminal product is readily reversible.^[ [41] ^] […] We determined a second‐order rate constant of 5.9 × 10^−2 M^−1 s^−1 for the reaction of 1 with 1H‐pyrrole‐1‐propionate (Figures 2 and S2). […]

CBX8 chromodomain (ChD) = target: T5, CBX8 chromodomain (ChD) (Homo sapiens, UniProt Q9HC52); test: Non-directed labeling of CBX8 ChD with cyclic imine 1 (mass spectrometry); format: binding; conditions: 1 (50 µM), CBX8 ChD (50 µM), 10 h
T5 construct: CBX chromodomain constructs (addgene plasmid #25158 (CBX2), and #62514 (CBX8, provided by Cheryl Arrowsmith)); 6His; host or cells: E. coli (BL21 CodonPlus RIL or Rosetta 2)
T5 sequence (Q9HC52 11-69 limits assumed): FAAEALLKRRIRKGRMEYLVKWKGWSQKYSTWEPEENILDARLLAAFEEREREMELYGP
From the text: Our interest in this chemistry was to improve inhibitors of the chromodomains (ChD) of the CBX family of epigenetic proteins, which have proven challenging to inhibit selectively or with drug‐like small molecules.^[ [47] ^] The CBX ChDs bind a trimethylated lysine (Kme3) side chain on histone tails via cation‐pi interactions with the aromatic cage in the ChD. Our initial hypothesis was that the aromatic cage tryptophan residues would show increased reactivity to Mannich electrophiles, as they function naturally to donate electron density to the electron‐poor methyl groups of Kme3. To test this, 1 (50 µM) was incubated for 10 h with the CBX8 chromodomain (ChD) (50 µM), and labeling was assessed by mass spectrometry (Figure S11).
Figure S11. […] Cyclic imine 1 ([…]) was incubated with 50 µM CBX8 ChD in PBS (pH=7, 0.02% Tween20) buffer at R.T. for 16 hours overnight. Labeled protein was precipitated using cold MeOH:CHCl3 at the ratio of MeOH:CHCl3:Protein = 3:0.5:1, followed with two methanol washes. Protein pellet was air dried after the last wash resuspensed in water containing 0.1% formic acid and 100 mM ammonium acetate. Protein labeling was characterized by LC/MS (Unmodified CBX8 control is indicated in red, and CBX8 labeled with cyclic imine is indicated in green).

[5] = Reaction of imine 1 with 1H-pyrrole-1-propionate (pyrrolated lysine mimic), rate constant; format: physicochemical; conditions: imine 10 mM, 1 mM 1H-pyrrole-1-propionate
Description: as §1, with “analysis. Rates of imine 1 with N‐Ac‐Tyr‐NMe, indole‐3‐butyric acid, and 1H‐pyrrole‐1‐propionic acid and compounds 4, 11, and 13 with N‐Ac‐Tyr‐NMe were measured. […]” for “analysis.”
as §5

[6] = electrophile 5 mM, N‐acetyl‐l‐tyrosine methyl amide 100 mM, PBS pH 7, 37 °C

2-hydroxyquinoxaline [compound 4]
reactivity (t1/2) ([1]; buffer, pH 7): 6.1 ± 0.2 h

COc1cc(Cc2cnc(N)nc2N)cc(OC)c1OCCCCN1CCN=CC1=O [TMP‐Im]
stability to long‐term incubation in PBS ([2]; 24 h in aqueous buffer, then sodium cyanoborohydride, mass spectrometry): stability over the 24 h | covalent labeling of eDHFR wild type (eDHFR wt): no labeling | covalent labeling of eDHFR L28Y (eDHFR L28Y; 10 µM protein, 10 µM compound, overnight, 37 °C): covalent labeling | effect of GSH on labeling of eDHFR L28Y (eDHFR L28Y; presence of 5 mM GSH): only a slight reduction in reaction conversion | labeling of eDHFR L28C cysteine mutant (eDHFR L28C; absence of additional thiols, TCEP as reductant): A small amount of labeling | labeling of eDHFR L28C cysteine mutant (eDHFR L28C; in the presence of 5 mM glutathione (GSH) and 5 mM TCEP): no detectable labeled protein | stability in bovine serum‐containing cell media [3]: minimal loss of compounds to the precipitated protein fraction or degradation | stability in bovine serum‐containing cell media ([3]; listed as TMP-Im): no degradation or loss to the protein fraction | covalent labeling of eDHFR L28W (eDHFR L28W): covalent labeling

O=C1C=NC2CCCCC2N1 (stereo not shown) [compound 1]
stable as a solid at room temperature ([2]; solid, room temperature): over 3 months | second‐order rate constant k2 with indole‐3‐butyrate [4]: 0.00011 M⁻¹ s⁻¹ | labeling of CBX8 ChD by imine alone (CBX8 chromodomain (ChD)): distribution of unlabeled, singly, doubly, and triply labeled protein indicative of random labeling | second‐order rate constant k2 with 1H‐pyrrole‐1‐propionate [5]: 0.059 M⁻¹ s⁻¹ | reactivity (t1/2) [1, 6]: 8 ± 0.3 h | second‐order rate constant k2 with N‐Ac‐Tyr‐NHMe ([1]; pseudo‐first‐order conditions, PBS pH 7, 37 °C): 0.00024 M⁻¹ s⁻¹

O=C1C=N[C@H]2CCCC[C@@H]2O1 [compound 2]
reactivity (t1/2) ([1]; electrophile 5 mM, Ac-Tyr-NHMe 100 mM, PBS pH 7, 37 °C, competing hydrolysis): ∼40 mins ^b)

O=S1(=O)N=Cc2ccccc21 [compound 11]
reactivity (t1/2) [1, 6]: 2.4 ± 0.1 h

O=C(O)c1ccc(OS(=O)(=O)F)cc1 [compound 14, reference compound]
reactivity (t1/2) [1, 6]: ∼48 h

Source: paper PMC13053910, “Covalent Protein Inhibitors via Tyrosine and Tryptophan Conjugation with Cyclic Imine Mannich Electrophiles” (Angewandte Chemie (International Ed. in English), 2026)
